Source: US5336485A, “Method for protecting animals against tacrine induced cytotoxic injury using sterol compounds” (priority 1993, dated 1994)

Tests used:
rat = settings: in vivo, ip, 100 mg/kg
Description: The duration of pentobarbitone-induced sleeping time is directly dependent on the metabolism of pentobarbitone in the liver.
^a Rats are pretreated, with the compounds listed, 20 hours prior to

rat hepatocytes [1] = test: ATP content of rat hepatocyte suspensions; format: cell-based; settings: 25 μM
Description: It is well known that the succinate molecule is utilized by the cell to produce ATP energy. In the tricarboxylic acid cycle, succinate is oxidized by succinate dehydrogenase to produce ATP. Oxidation occurs in the mitochondria and the mitochondria can utilize both succinate formed in the mitochondria or succinate transported to the mitochondria. Increasing ATP production may enhance cellular repair processes as well as normal metabolic processes. For example, the cell's ability to remove free intracellular Ca^2+ during a toxic insult is related to ATP production. Succinate administration stimulates gluconeogenesis to form glucose 6-phosphate which is used for producing energy anaerobically (ATP formation through glycolysis) and for producing reducing equivalents (NADPH formation through the hexose monophosphate shunt needed for lipid and nucleotide biosynthesis and other biosynthetic reductions and enzymatic reactions, e.g., glutathione reductase). An in vitro experiment was conducted to determine the relationship between the release of succinate from alpha-TS and the cellular ATP level. The experiment was performed by incubating a tocopherol analog in a rat hepatocyte suspension and measuring the ATP level at the beginning and end of the test.
Rat hepatocyte suspensions were subjected to 50 mM EMS and the percentage of cell death, the percentage of intracellular K^+ (a metabolic parameter as discussed above), the depletion of ATP and the effect on lipid peroxidation were monitored.

[2] = tested on: gluconeogenesis or ATP production; settings: cited from earlier work
[3] = tested on: isolated rat liver mitochondria; settings: 6 mM succinate; cited from earlier work
rat hepatocytes [4] = test: EMS-induced cytotoxicity (LDH leakage/cell death) in rat hepatocyte suspensions; settings: Rattus norvegicus, Hepatocyte, 5 h, read-out: Percent Cytoprotection, 25 μM, 50 mM EMS, 5 h
L1210 leukemia cells = settings: mouse, in vivo
male Sprague-Dawley rats = test: CCl4 induced lethality in rats; format: in vivo, rat

| SMILES | Sleeping Time (rat) [min] | Rate of ATP Depletion (rat hepatocytes [1]) [nmoles/10^6 cell/hr] | Cellular ATP (rat hepatocytes [1]; 0 Hr) [nmoles/10^6 cells] | Cellular ATP (rat hepatocytes [1]; 6 Hr) [nmoles/10^6 cells] | concentration required to stimulate gluconeogenesis or ATP production [2] | increase of Ca2+ capacity and Ca2+ retention of mitochondria [3] | inhibition at 25 µM (rat hepatocytes [4]) [%] | Survival time (footnote) (L1210 leukemia cells) | Survival after CCl4 treatment (male Sprague-Dawley rats; 100 mg/kg ip 24 h prior, […] CCl4 oral) | Days Survived After CCl4 Treatment (male Sprague-Dawley rats; 100 mg/kg, single dose 24 h prior, CCl4 […]) [days] | cytoprotection (Table 7, in words) (male Sprague-Dawley rats; rat, in vivo) |
| --- | --- | --- | --- | --- | --- | --- | --- | --- | --- | --- | --- |
| CC(C)(C(=O)c1cccnc1)c1cccnc1 [Metyrapone] | 900 ± 120 |  |  |  |  |  |  |  |  |  |  |
| O=C(O)CCC(=O)O [Succinic Acid, reference compound] |  | 1.8 ± 0.2 | 15.7 ± 1.3 | 4.9 ± 0.6 | Millimolar concentrations | five to seven | 0 | identical for succinate and vehicle treated | No | 2 | not cytoprotective |
